Patent publication US12351571B2, “Substituted quinoxaline compounds as inhibitors of FGFR tyrosine kinases” (ARRAY BIOPHARMA INC., priority 2018, dated 2025)
pIC50: −log10 of the molar value.

Tests used:
[1] = target: recombinant human FGFR1 catalytic domain (Homo sapiens (Human), UniProt P11362); assay: FGFR Enzyme Activity Assay (LanthaScreen TR-FRET), FGFR1; format: biochemical; conditions: 15 μM ATP, 20 minutes incubation; read-out: FGFR1 Enz FRET IC50
Method: FGFR1 kinase activity was measured by the Invitrogen LanthaScreen™ Assay technology which directly measures the amount of substrate phosphorylation by Time-resolved fluorescence energy transfer (TR-FRET) using a flourescently-labeled peptide and Europium-labeled antibody. Briefly, 200 pM His-tagged recombinant human FGFR1 catalytic domain (amino acids 308-731) (Life Technologies Cat. No. PR4660A) was incubated with 100 nM Alexa Fluor® 647-Poly-GT Peptide Substrate (Life Technologies Cat. No. PV5836) and 15 μM ATP along with test compound in a buffer consisting of 250 mM HEPES, 25 mM MgCl2, 0.05% TritonX-100, pH 7.5, and 2% DMSO. Compounds were typically prepared in a threefold serial dilution in DMSO and added to the assay to give the appropriate final concentration. After a 20 minutes incubation at 22° C., an equal volume of 2 nM LanthaScreen® Eu-PY20 Antibody (Life Technologies Cat. No. PV5691) and 10 mM EDTA was added to quench the kinase reaction and start the detection reaction. After an additional 60 minute incubation at 22° C., the reaction was measured using a PerkinElmer EnVision multimode plate reader via TR-FRET dual wavelength detection, and the percent of control (POC) calculated using a ratiometric emission factor. 100 POC was determined using no test compounds and 0 POC was determined using no enzyme. The POC values were fit to a 4-parameter logistic curve as a function of the concentration of the compound, and the IC50 value is the point where the curve crosses 50 POC.

[2] = target: FGFR3 (Homo sapiens (Human), UniProt P22607); assay: FGFR Enzyme Activity Assay (LanthaScreen TR-FRET), FGFR3; format: biochemical; conditions: 25 μM ATP, 10 minute incubation; read-out: FGFR3 Enz FRET IC50
Chain of FGFR3 (P22607 397-806): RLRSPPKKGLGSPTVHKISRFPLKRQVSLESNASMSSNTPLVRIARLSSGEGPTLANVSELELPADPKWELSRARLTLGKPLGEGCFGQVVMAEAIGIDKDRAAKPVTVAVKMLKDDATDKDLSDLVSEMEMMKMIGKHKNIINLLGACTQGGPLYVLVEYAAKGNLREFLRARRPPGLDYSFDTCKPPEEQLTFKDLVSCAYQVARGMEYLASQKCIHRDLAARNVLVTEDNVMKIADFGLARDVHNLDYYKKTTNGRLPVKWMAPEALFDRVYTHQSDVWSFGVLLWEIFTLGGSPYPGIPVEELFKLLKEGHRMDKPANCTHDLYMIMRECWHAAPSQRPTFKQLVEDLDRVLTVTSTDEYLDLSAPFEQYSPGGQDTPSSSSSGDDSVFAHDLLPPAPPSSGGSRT
Method: FGFR3 kinase activity was measured by the Invitrogen LanthaScreen™ Assay technology which directly measures the amount of substrate phosphorylation by TR-FRET using a flourescently-labeled peptide and Europium-labeled antibody. Briefly, 750 pM N-terminal GST-HIS6 fusion protein with a 3C cleavage site recombinant human FGFR3 (amino acids R397-T806) (ProQinase Cat. No. 1068-0000-1) was incubated with 100 nM Alexa Fluor® 647-Poly-GT Peptide Substrate (Life Technologies Cat. No. PV5836) and 25 μM ATP along with test compound in a buffer consisting of 250 mM HEPES, 25 mM MgCl2, 0.05% TritonX-100, pH 7.5, and 2% DMSO. Compounds were typically prepared in a threefold serial dilution in DMSO and added to the assay to give the appropriate final concentration. After a 10 minute incubation at 22° C., an equal volume of 2 nM LanthaScreen® Eu-PY20 Antibody (Life Technologies Cat. No. PV5691) and 10 mM EDTA were added to quench the kinase reaction and start the detection reaction. After an additional 60 minute incubation at 22° C., the reaction was measured using a PerkinElmer EnVision multimode plate reader via TR-FRET dual wavelength detection, and the percent of control (POC) calculated using a ratiometric emission factor. 100 POC was determined using no test compounds and 0 POC was determined using no enzyme. The POC values were fit to a 4-parameter logistic curve as a function of the concentration of the compound, and the IC50 value is the point where the curve crosses 50 POC.

[3] = target: FGFR1 (Homo sapiens (Human), UniProt P11362); assay: LC/MS FGFR1 kobs assay (covalent modification); format: biochemical; conditions: 500 nM FGFR1, 3 μM compound
Chain of FGFR1 (P11362 458-765): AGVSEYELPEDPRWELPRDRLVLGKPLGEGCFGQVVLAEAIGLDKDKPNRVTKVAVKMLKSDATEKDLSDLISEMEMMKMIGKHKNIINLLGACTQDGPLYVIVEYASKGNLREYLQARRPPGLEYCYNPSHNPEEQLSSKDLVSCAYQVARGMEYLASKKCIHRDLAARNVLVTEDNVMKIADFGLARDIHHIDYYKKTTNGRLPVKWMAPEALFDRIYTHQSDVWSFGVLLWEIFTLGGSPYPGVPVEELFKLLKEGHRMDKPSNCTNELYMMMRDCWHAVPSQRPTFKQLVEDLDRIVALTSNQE
Method: The LC/MS FGFR1 and FGFR3 kobs assays were conducted as follows. 500 nM FGFR1 (Array BioPharma construct p1702; SEQ ID NO: 1, amino acids 458-765) or FGFR3 (Array BioPharma construct p1700; SEQ ID NO: 5, amino acids 449-759) were incubated with 3 μM compound in 25 mM HEPES (4-(2-hydroxyethyl)-1-piperazineethanesulfonic acid), pH 7.4, 5 mM MgCl2, 150 mM NaCl, 0.5 mM TCEP (tris(2-carboxyethyl) phosphine), and 2% DMSO in a total volume of 20 μL. At each time point, the reaction was quenched with 20 μL of 0.4% formic acid. The extent of protein modification by each compound was determined by LC/MS on an Agilent Technologies 6520 Q-TOF LC/MS. Protein signals were then automatically deconvoluted using Agilent Masshunter software. Deconvoluted mass signals were exported to Tibco Spotfire data analysis program for further processing and normalization.
Data analysis included five steps. First, the signals for the “DMSO Controls” were analyzed to determine the percent of signal associated with unmodified FGFR1 or FGFR3 at each time point. Next, the percent of the signal associated with the covalent modification was determined. Third, the average nonmodified “DMSO Control” signal was used to normalize the modified protein signals at each time point. The percent of unmodified protein was fit to an exponential decay model where A0 is the Percent Unmodified at the start of the reaction, and kobs is the observed rate constant over the time period.

[4] = target: phosphorylated FGFR3 (Homo sapiens (Human), UniProt P22607); assay: FGFR Enzyme Binding Assay (HTRF tracer displacement), FGFR3; conditions: 5 nM phosphorylated FGFR3, 60 minute incubation at 22° C.; read-out: FGFR3 Enz Binding IC50
Chain of phosphorylated FGFR3 (P22607 449-759): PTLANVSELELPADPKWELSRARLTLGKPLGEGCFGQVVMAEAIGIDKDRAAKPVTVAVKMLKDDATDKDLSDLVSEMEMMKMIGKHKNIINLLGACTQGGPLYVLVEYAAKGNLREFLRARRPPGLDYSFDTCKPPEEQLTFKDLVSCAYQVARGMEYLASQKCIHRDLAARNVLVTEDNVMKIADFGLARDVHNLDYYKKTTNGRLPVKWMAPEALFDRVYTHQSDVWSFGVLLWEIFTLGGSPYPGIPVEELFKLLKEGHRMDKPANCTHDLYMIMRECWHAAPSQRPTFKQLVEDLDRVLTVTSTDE
Method: The potency of compounds inhibiting human isoforms of FGFR kinase was determined using Life Technologies' Homogeneous Time Resolved Fluorescence (HTRF)-based binding assay technology. An incubation was conducted with either 5 nM dephosphorylated FGFR1 (Array Biopharma, p1702; SEQ ID NO: 1, amino acids 458 to 765, dephosphorylated by co-expression with PTP1b (protein tyrosine phosphatase 1B)), 5 nM dephosphorylated FGFR2 (Life Technologies, Cat. No. PV4106 that had been dephosphorylated with Lambda protein phosphatase (New England Biolabs, cat #P0753)) or 5 nM phosphorylated FGFR3 (Array Biopharma, p1836; SEQ ID NO: 5, amino acids 449 to 759), 50 nM Kinase Tracer 236 (Life Technologies Cat. No. PR9078A), 2 nM Biotin-anti-6HIS (Life Technologies Cat. No. PV6090) and 2 nM Europium-Streptavidin (Life Technologies Cat. No. PV6025) along with test compound in a buffer consisting of 50 mM HEPES ((4-(2-hydroxyethyl)-1-piperazineethanesulfonic acid, pH 7.5), 5 mM MgCl2, 0.005% Triton X-100, 1 mM DTT, 1 mM NaVO4 and 2% DMSO in a final volume of 12 μL Compounds were typically prepared as a 3-fold or 4-fold serial dilution in DMSO and added to the assay to give the appropriate final concentration. After a 60 minute incubation at 22° C., the extent of tracer displacement was determined using a PerkinElmer EnVision multimode plate reader via HTRF dual wavelength detection, and the percent of control (POC) was calculated using a ratiometric emission factor. One hundred POC was determined using no test compound, and 0 POC was determined in the presence of 1 μM of an appropriate control inhibitor. A 4-parameter logistic curve was fit to the POC values as a function of the concentration of compound, and the IC50 value was the point where the best-fit curve crossed 50 POC.

Chain of recombinant human FGFR1 catalytic domain (P11362 other isoform, or with tags, fused parts or gaps): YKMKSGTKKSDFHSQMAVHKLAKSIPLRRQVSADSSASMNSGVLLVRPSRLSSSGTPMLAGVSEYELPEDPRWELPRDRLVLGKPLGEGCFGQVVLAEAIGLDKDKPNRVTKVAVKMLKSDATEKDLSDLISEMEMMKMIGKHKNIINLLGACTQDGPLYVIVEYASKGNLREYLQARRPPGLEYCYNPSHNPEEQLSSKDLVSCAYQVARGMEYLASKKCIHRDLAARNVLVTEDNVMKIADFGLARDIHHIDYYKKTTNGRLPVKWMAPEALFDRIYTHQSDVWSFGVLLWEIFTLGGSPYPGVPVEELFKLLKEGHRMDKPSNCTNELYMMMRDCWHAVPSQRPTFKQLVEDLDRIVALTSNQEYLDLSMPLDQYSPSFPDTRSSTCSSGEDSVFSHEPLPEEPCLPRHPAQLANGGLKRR

Question: With C=CC(=O)N1CC(C#N)(C(=O)N2CCC(n3cc(-c4cnc5ccc(Nc6cc(OC)cc(OC)c6)cc5n4)cn3)CC2)C1 [Example 12, 1-acryloyl-3-(4-(4-(7-((3,5-dimethoxyphenyl)-amino)quinoxalin-2-yl)-1H-pyrazol-1-yl)-piperidine-1-carbonyl)-azetidine-3-carbonitrile] as the compound, how does the pIC50 [1] read?
Answer: 7.05

Question: What about the pIC50 [2] of the same compound?
Answer: 7.89

Question: And the “FGFR1 Enz kobs” value [3]?
Answer: 0.0107 min⁻¹

Question: And the pIC50 [4]?
Answer: 8.52

Question: With COc1cc(Nc2ccc3ncc(-c4ccc(N5CCN(C(=O)C6(F)CN(C(=O)/C=C/CN(C)C)C6)CC5)nc4C)nc3c2)cc(OC)c1 [Example 13, (E)-1-(3-(4-(5-(7-((3,5-dimethoxyphenyl)amino)-quinoxalin-2-yl)-6-methylpyridin-2-yl)-piperazine-1-carbonyl)-3-fluoroazetidin-1-yl)-4-(dimethylamino)but-2-en-1-one] as the compound, how does the pIC50 [1] read?
Answer: 5.67

Question: And the pIC50 [2]?
Answer: 5.74

Question: What about the “FGFR1 Enz kobs” value [3] of the same compound?
Answer: 0.00293 min⁻¹

Question: And the pIC50 [4]?
Answer: 6.47

Question: With COc1cc(Nc2ccc3ncc(-c4cnc(N5CCN(C(=O)C6(F)CN(C(=O)/C=C/CN(C)C)C6)CC5)cc4C)nc3c2)cc(OC)c1 [Example 14, (E)-1-(3-(4-(5-(7-((3,5-dimethoxyphenyl)amino)-quinoxalin-2-yl)-4-methylpyridin-2-yl)-piperazine-1-carbonyl)-3-fluoroazetidin-1-yl)-4-(dimethylamino)but-2-en-1-one] as the compound, how does the pIC50 [1] read?
Answer: 5.81

Question: And the pIC50 [2]?
Answer: 6.31

Question: What about the “FGFR1 Enz kobs” value [3] of the same compound?
Answer: 0.00326 min⁻¹

Question: What about the pIC50 [4] of the same compound?
Answer: 6.91

Question: What does the source list for C=CC(=O)N1CC(F)(C(=O)N2CCN(c3cc(C)c(-c4cnc5ccc(Nc6cc(OC)cc(OC)c6)cc5n4)cn3)CC2)C1 [Example 15, 1-(3-(4-(5-(7-((3,5-dimethoxyphenyl)amino)-quinoxalin-2-yl)-4-methylpyridin-2-yl)-piperazine-1-carbonyl)-3-fluoroazetidin-1-yl)prop-2-en-1-one]?
Answer: pIC50 [1]: 5.30; pIC50 [2]: 5.30; FGFR1 Enz kobs [3]: 0.00154 min⁻¹; pIC50 [4]: 6.94

Question: How did the pIC50 [1] turn out when C=CC(=O)N1CC(C(=O)N2CC(n3cc(-c4cnc5ccc(Nc6cc(OC)cc(OC)c6)cc5n4)cn3)C2)C1 [Example 16, 1-(3-(3-(4-(7-((3,5-dimethoxyphenyl)amino)-quinoxalin-2-yl)-1H-pyrazol-1-yl)azetidine-1-carbonyl)azetidin-1-yl)-prop-2-en-1-one] was run?
Answer: 7.32

Question: And the pIC50 [2]?
Answer: 7.74

Question: And the “FGFR1 Enz kobs” value [3]?
Answer: 0.00151 min⁻¹

Question: What about the pIC50 [4] of the same compound?
Answer: 8.30

Question: Which results are given for COc1cc(Nc2ccc3ncc(-c4cnn(C5CCN(C(=O)C6(F)CN(C(=O)/C=C/CN(C)C)C6)CC5)c4C)nc3c2)cc(OC)c1 [Example 17, (E)-1-(3-(4-(4-(7-((3,5-dimethoxyphenyl)amino)-quinoxalin-2-yl)-5-methyl-1H-pyrazol-1-yl)piperi-dine-1-carbonyl)-3-fluoroazetidin-1-yl)-4-(dimethylamino)but-2-en-1-one]?
Answer: pIC50 [1]: 6.42; pIC50 [2]: 7.32; FGFR1 Enz kobs [3]: 0.00842 min⁻¹; pIC50 [4]: 8.30

Question: What does the source list for C=CC(=O)N1CC(C(=O)N2CCC(n3ncc(-c4cnc5ccc(Nc6cc(OC)cc(OC)c6)cc5n4)c3C)CC2)C1 [Example 18, 1-(3-(4-(4-(7-((3,5-dimethoxyphenyl)amino)-quinoxalin-2-yl)-5-methyl-1H-pyrazol-1-yl)piperi-dine-1-carbonyl)azetidin-1-yl)prop-2-en-1-one]?
Answer: pIC50 [1]: 5.92; pIC50 [2]: 6.43; FGFR1 Enz kobs [3]: 0.00096 min⁻¹; pIC50 [4]: 7.74

Question: What does the source list for COc1cc(Nc2ccc3ncc(-c4cnn([C@@H]5CCN(C(=O)C6(F)CN(C(=O)/C=C/CN(C)C)C6)C5)c4)nc3c2)cc(OC)c1 [Example 19, (R,E)-1-(3-(3-(4-(7-((3,5-dimethoxyphenyl)amino)-quinoxalin-2-yl)-1H-pyrazol-1-yl)pyrrolidine-1-carbonyl)-3-fluoro-azetidin-1-yl)-4-(dimethyl-amino)but-2-en-1-one]?
Answer: pIC50 [1]: 6.54; pIC50 [2]: 7.30; FGFR1 Enz kobs [3]: 0.00339 min⁻¹; pIC50 [4]: 8.40

Question: What does the source list for COc1cc(Nc2ccc3ncc(-c4cnn([C@@H]5CCN(C(=O)C6CN(C(=O)/C=C/CN(C)C)C6)C5)c4)nc3c2)cc(OC)c1 [Example 20, (R,E)-1-(3-(3-(4-(7-((3,5-dimethoxyphenyl)amino)-quinoxalin-2-yl)-1H-pyrazol-1-yl)pyrrolidine-1-carbonyl)azetidin-1-yl)-4-(dimethylamino)but-2-en-1-one]?
Answer: pIC50 [1]: 6.71; pIC50 [2]: 7.38; FGFR1 Enz kobs [3]: 0.00141 min⁻¹; pIC50 [4]: 8.30

Question: C=CC(=O)N1CC(C(=O)N2CC[C@@H](n3cc(-c4cnc5ccc(Nc6cc(OC)cc(OC)c6)cc5n4)cn3)C2)C1 [Example 21, (R)-1-(3-(3-(4-(7-((3,5-dimethoxyphenyl)amino)-quinoxalin-2-yl)-1H-pyrazol-1-yl)pyrrolidine-1-carbonyl)azetidin-1-yl)prop-2-en-1-one] was tested. Which pIC50 [1] did it give?
Answer: 6.53

Question: And the pIC50 [2]?
Answer: 7.43

Question: What about the “FGFR1 Enz kobs” value [3] of the same compound?
Answer: 0.00106 min⁻¹

Question: And the pIC50 [4]?
Answer: 8.30

Question: COc1cc(Nc2ccc3ncc(-c4cn(C5CCN(C(=O)C6(F)CN(C(=O)/C=C/CN(C)C)C6)CC5)nc4C)nc3c2)cc(OC)c1 [Example 22, (E)-1-(3-(4-(4-(7-((3,5-dimethoxyphenyl)amino)-quinoxalin-2-yl)-3-methyl-1H-pyrazol-1-yl)-piperidine-1-carbonyl)-3-fluoroazetidin-1-yl)-4-(dimethylamino)but-2-en-1-one] was tested. Which pIC50 [1] did it give?
Answer: 6.47

Question: And the pIC50 [2]?
Answer: 7.10

Question: What about the “FGFR1 Enz kobs” value [3] of the same compound?
Answer: 0.00673 min⁻¹

Question: What about the pIC50 [4] of the same compound?
Answer: 8.40
